Consider two molecules from PMC5329948, “Caspase vinyl sulfone small molecule inhibitors prevent axonal degeneration in human neurons and reverse cognitive impairment in Caspase-6-overexpressing mice” (Molecular Neurodegeneration, 2017).

pIC50: −log10 of the molar value.

One data set deals with T1, recombinant Caspase-2 (Homo sapiens, UniProt P42575).
T1 construct: purchased BioVision
The data set is described as follows: Caspase Inhibitor Drug Screening Kit (BioVision), VDVAD-AFC substrate. The note with it: not active site titrated. The format is biochemical. On the procedure:
(§1) The half-maximal inhibitory concentrations (IC50) for NWL inhibitors (Patent publication # WO/2009/140765, WO/2010/133000, and WO/2012/140500) was determined by incubating 0 to 20 μM NWL-117 and NWL-154 with 20 nM of active site-titrated Casp6 in SB at room temperature for 5 minutes. Then, 10 μM Ac-VEID-AFC was added and fluorescence measured for 20 min at 37 °C as described above. New World Laboratories performed the IC50 determination for NWL inhibitors dissolved in dimethyl sulfoxide (DMSO) against recombinant Casp1-10 using the Caspase Inhibitor Drug Screening Kits (BioVision, San Francisco, CA) following the manufacturer’s instructions and the preferred substrates for the caspases (Caspase-1: WAD-AFC, Caspase-2: VDVAD-AFC, Caspase-3: DEVD-AFC, Caspase-4: LEVD-AFC, Caspase-5: WEHD-AFC, Casp6:VEID-AFC, Caspase-7: DEVD-AFC, Caspase-8: IETD-AFC, Caspase-9: LEHD-AFC, Caspase-10: AEVD-AFC). In transfected HCT116 cells, 0 to 100 μM NWL inhibitors were added in the culture media and left on the cells for 2 h. Cells were washed once with 1 mL ice-cold PBS, incubated on ice for 5 min with 200 μL cell lysis buffer (CLB) (50 mM HEPES, 0.1% CHAPS, 0.1 mM EDTA), and gently scraped off. Protein concentrations were determined by Bradford assay (BioRad, Mississauga, ON, CA) by measuring the absorbance at 595 nm using the BioTek Synergy H4 plate reader. […]

For another data set, the target named is T2, recombinant Caspase-1 (Homo sapiens, UniProt P29466).
T2 construct: purchased BioVision
T2 sequence (P29466 120-404): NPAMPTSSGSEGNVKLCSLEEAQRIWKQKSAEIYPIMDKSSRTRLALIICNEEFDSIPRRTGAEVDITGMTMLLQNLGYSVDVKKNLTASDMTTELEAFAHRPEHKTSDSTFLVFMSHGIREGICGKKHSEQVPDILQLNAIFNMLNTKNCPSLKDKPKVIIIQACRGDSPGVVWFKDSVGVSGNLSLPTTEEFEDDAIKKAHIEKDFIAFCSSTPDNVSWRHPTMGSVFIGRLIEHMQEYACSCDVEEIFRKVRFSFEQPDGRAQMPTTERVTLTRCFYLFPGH
The data set is described as follows: Caspase Inhibitor Drug Screening Kit (BioVision), WAD-AFC substrate. The class given is biochemical. The settings on record: not active site titrated. On the procedure:
as §1

Data set [1] deals with primary human CNS neurons. The data set is described as follows: Cellular toxicity in primary human neurons (phase contrast, MTT). The class given is cell-based. The note with it: for toxicity in human neurons: concentrations up to 100 μM; for neuronal morphology / mitochondrial reductive potential (MTT): primary human neurons; for neuronal morphology: 100 μM, 24 h; for mitochondrial reductive potential (MTT): 24 or 48 h. On the procedure:
HCT116: Human colon carcinoma (HCT116) cells (ATCC, Manassas, VA, USA) were cultured in McCoy’s 5A modified media (Thermo Fisher Scientific, Waltham, MA, USA) supplemented with 10% fetal bovine serum (Thermo Fisher Scientific, Waltham, MA, USA) and transfected with 1 μg of pCep4βCasp6p20p10 mixed with 8 μg of polyethyleneimine (Polysciences Inc., Warrington, PA, USA). Protein expression was allowed for 24 h before treating with vehicle (PBS), 100 μM NWL-117, or 100 μM NWL-154 for 2 h. For NWL inhibitor kinetic experiments, 100 μM of NWL-117 or NWL-154 was added at 120, 90, 60, 30, 15, or 0 min before harvest. […] For recovery time course experiments, after the initial treatment with 100 μM of NWL-117 or −154 for 2 h, the media was replaced with fresh media for 120, 90, 60, 30, 15, or 0 min before harvest. Primary Human CNS neurons: Cortical tissues were obtained from the Birth Defects Research Laboratory (BDRL, University of Washington, Seattle, USA) in accordance with NIH ethical guidelines approved by McGill University’s institutional review board and primary neurons cultured as previously described. Primary human neurons were seeded on poly-L-lysine-coated (5 μg/mL) 6-well plates or glass coverslips coated with poly-L-lysine and laminin (5 μg/mL) (Sigma-Aldrich, Oakville, ON, CA) at a density of 3x10^6 cells/mL. Primary human neurons were pre-treated with 0.1 μM epoxomicin (Enzo LifeSciences, Farmingdale, NY, USA) and 100 μM NWL-117, 100 μM NWL-154, or vehicle (PBS) for 2 h, and serum-deprived for 2 h in the presence of epoxomicin and vehicle (PBS), 100 μM NWL-117, or 100 μM NWL-154 before harvesting or measuring caspase activity with FLICA, as described below.
Immunofluorescence on human neuron cultures: Primary human neurons were pre-treated 2 h and serum-deprived in the presence of 100 μM NWL-117, 100 μM NWL-154, or 5 μM Z-VEID-fmk (Biomol, Plymouth meeting, PA, USA) for 24 h. Following treatment, human neurons were washed once with warm PBS, fixed for 20 min at room temperature with 4% paraformaldehyde (Sigma, Oakville, ON, CA)/4% sucrose (BioRad, Mississauga, ON, CA) for TubΔCasp6 or 2% formaldehyde (Thermo Fisher Scientific, Waltham, MA, USA)/0.2% glutaraldehyde (Sigma, Oakville, ON, CA) for pBudEGFP or pBudEGFP/APP^WT-transfected neurons, incubated in permeabilization buffer (0.1% Triton X-100, 0.1 sodium citrate) for 1 min on ice, washed with PBS, blocked for 20 min at room temperature with 10% goat serum (Sigma, Oakville, ON, CA), and incubated with primary antibodies diluted in 10% goat serum in PBS overnight at 4 °C in a humid chamber. The glass coverslips were washed with PBS, and incubated with goat anti-rabbit secondary antibody coupled to Alexa 488 (Molecular Probes, Eugene, OR, USA) or Cy3 (GE Healthcare Life Sciences, Baie D’Urfe, QC, CA) and Hoechst 33342 (ImmunoChemistry, Bloomington, MN, USA) at 1 μg/mL for 2 h at room temperature. The coverslips were washed with PBS and rinsed in Milli-Q water before mounting in fluoromount (Dako, Burlington, ON, CA). Images were acquired by fluorescence microscopy and quantified using the ImageJ software (NIH, Bethesda, MD, USA) for TubΔCasp6 and manually counted for transfected EGFP(+)-neurons. Time lapse-imaging by live fluorescence microscopy: Primary human neurons were transfected with gold beads coated with pBudEGFP or pBudEGFP/APP^WT using a Helios Gene gun (BioRad, Mississauga, ON, CA). Briefly, cells were pre-treated with 100 μM NWL inhibitors or 5 μM Z-VEID-fmk for 2 h. The media was removed and the neurons were shot at 100 psi. The media was quickly replaced with the inhibitors present. The plasmid was expressed for 16 h before setting up the fluorescence microscope (Nikon Eclipse Ti) to acquire 20 images per condition every hour for 72 h at 37 °C with 5% CO2. The images were analyzed by counting the total number of neurons (50–100 neurons per condition per independent experiment), and the number of beaded, swollen soma, and healthy neurons. […]

T1 sequence (P42575 whole entry): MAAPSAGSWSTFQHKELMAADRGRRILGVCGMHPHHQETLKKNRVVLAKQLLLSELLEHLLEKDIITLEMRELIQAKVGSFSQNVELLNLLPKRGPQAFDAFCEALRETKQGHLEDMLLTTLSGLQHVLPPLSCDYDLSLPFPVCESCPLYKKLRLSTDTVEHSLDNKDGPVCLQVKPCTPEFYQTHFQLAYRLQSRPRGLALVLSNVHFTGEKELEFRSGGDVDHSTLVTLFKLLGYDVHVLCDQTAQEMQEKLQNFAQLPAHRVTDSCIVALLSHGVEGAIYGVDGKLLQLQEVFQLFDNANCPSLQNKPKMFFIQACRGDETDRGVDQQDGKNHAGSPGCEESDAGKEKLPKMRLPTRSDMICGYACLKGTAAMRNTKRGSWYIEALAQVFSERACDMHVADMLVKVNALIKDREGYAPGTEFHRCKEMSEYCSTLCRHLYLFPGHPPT

For orientation: pIC50 means −log10 of the IC50, conventionally taken in molar units. Take `CCC(C)[C@H](NC(=O)[C@H](CCC(=O)O)NC(=O)[C@@H](NC(=O)OCc1ccccc1)C(C)C)C(=O)N[C@H](/C=C/S(C)(=O)=O)CC(=O)O` (stereo partly shown) [NWL-117]: the pIC50 on recombinant Caspase-2 was less than 4.00. Further, at recombinant Caspase-1, the pIC50 was 5.57. Besides, in data set [1], the “toxicity in human neurons” value is listed as “neither NWL-117 nor −154 is toxic”, the neuronal morphology entry is given as “did not change neuronal morphology” and the “mitochondrial reductive potential (MTT)” value is on record as “comparable to vehicle-treated neurons”.
On to `CCC(C)[C@H](NC(=O)[C@H](CCC(=O)O)NC(=O)[C@@H](NC(=O)OCc1ccccc1)C(C)C)C(=O)N[C@H](/C=C(\Cl)S(C)(=O)=O)CC(=O)O` (stereo partly shown) [NWL-154], for which, at recombinant Caspase-2, the pIC50 is less than 4.00. The pIC50 at recombinant Caspase-1 was 5.41. Besides, in data set [1], the “toxicity in human neurons” value is on record as “neither NWL-117 nor −154 is toxic”, the neuronal morphology result is on record as “did not change neuronal morphology” and the “mitochondrial reductive potential (MTT)” value is “comparable to vehicle-treated neurons”.
